Data set [1] addresses T1, CDK9 (Homo sapiens, UniProt P50750+Q96SW2).
T1 construct: endogenous in cells
In words: CDK9 degradation, automated western blot, triazole-containing AT7519 degraders (MV411). The format is cell-based. Particulars: for DC50: CDK9 degradation, MV411 cells; for Dmax: MV4-11, maximum percent CDK9 degradation. Here is the method: The obtained compounds were tested in biological experiments to measure their potency in inhibiting the growth of AML cells and in their degradation of CDK9. These measurements are reported as half-maximum growth inhibitory and half-maximum degradation concentrations, IC50s and DC50s, respectively. Maximum percent degradation (Dmax) values were also obtained during the CDK9 degradation assessments. The common MTS assay was used to acquire the IC50 values, while the DC50 values were obtained using an automated western blot experiment. These values are presented in Table 2, along with pIC50 (log(nM IC50)) to more accurately reflect the differences/lack thereof in in vitro cytotoxicity. The notation “N:N*” represents the number of linker atoms on each side of the rigid triazole ring for a given degrader. Predicted log D values, calculated using the ChemAxon […], are also provided for each degrader. To characterize the physicochemical properties of the new degrader series, two additional assays were performed: a kinetic aqueous solubility assay and the chromatographic log D experiment described earlier. Aqueous solubility is shown in μM while experimentally determined log D is shown as log k′80. Details regarding the execution of each experiment are provided below.

The nature of data set [2]: Chromatographic log D determination (log k′80). The data set is classed as physicochemical. Particulars: for logk′80: chromatographic log D, PLRP-S column, pH 7.72. Put shortly:
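Samples were diluted from DMSO stock to 122 μM in acetonitrile and run on a PLRP-S column in 20:80 aqueous ammonium acetate/acetonitrile, pH 7.72, at 1 mL/min with UV detection at 337 nm. log k′80 used a fixed 0.3 min dead time derived from a five-compound standard set. Runs were done in triplicate.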

For data set [3], the system named is MV411 cells. In words: MTS cytotoxicity assay against MV411 cells. The format is cell-based. To be noted: for IC50 / pIC50: Homo sapiens, MV4-11; for IC50: defined as log(nM IC50), MV411, read-out: pIC50 (converted); for pIC50: growth inhibition, MV411 cells, MTS, read-out: IC50.
The nature of a further data set: Kinetic solubility assay. To be noted: kinetic solubility, PBS pH 7.4; for solubility at 1.5 h: phosphate buffered saline, pH 7.4, aqueous buffer, kinetic from dmso stock, Solubility (μM).
Data set [4] relates to MV411 cells. The experiment in a line: Cellular potency in human serum versus fetal bovine serum, MV411. The data set is classed as cell-based. The text has this:
FIGS. 3A-3C. In vitro cellular potency (against MV411 cells) in human serum (HS) versus fetal bovine serum (FBS) for compounds 4.7b (FIG. 3A) 4.9c (FIG. 3B), and 4,8a (FIG. 3C).
This contrasts with 4.8a, which loses its potency by almost 20-fold in human serum (FIG. 3C).

The test system of a further data set is AML cells. In words: Drug washout experiment (cytotoxicity). To be noted: 6 h drugging, 48 h total. The format is cell-based. The procedure:
To better evaluate the catalytic mechanism of action of this degrader series, a drug washout (WO) experiment was performed. This experiment involved the drugging of cells for six hours after which the cell media was replaced with a drug-free batch.

In data set [5] the test system is CDK9. In words: In vivo CDK9 degradation in mice. Particulars: preliminary study, AML-xenografted mice. The procedure:
Both degraders were able to degrade CDK9 at low nanomolar concentrations. […] Moreover, dissolution of the test compounds in the 10 mM phosphate buffered saline (PBS) media was very difficult. Solvents, such as dimethylsulfoxide (DMSO), polyethylene glycol and Tween 80©, had to be added in generous quantities to the PBS vehicle to facilitate solubility of the test compounds and allow for the preliminary in vivo assessment that led to the conclusion of inactivity in mice. Significant toxicity, in the form of death and inflammation at the injection site, was also observed due to the inclusion of these additives in the PBS vehicle.

pIC50: −log10 of the molar value. Converted amounts (≈) assume the structure as drawn. Read-outs that look alike come from different tables or passages of the source.

T1 sequence (P50750 whole entry): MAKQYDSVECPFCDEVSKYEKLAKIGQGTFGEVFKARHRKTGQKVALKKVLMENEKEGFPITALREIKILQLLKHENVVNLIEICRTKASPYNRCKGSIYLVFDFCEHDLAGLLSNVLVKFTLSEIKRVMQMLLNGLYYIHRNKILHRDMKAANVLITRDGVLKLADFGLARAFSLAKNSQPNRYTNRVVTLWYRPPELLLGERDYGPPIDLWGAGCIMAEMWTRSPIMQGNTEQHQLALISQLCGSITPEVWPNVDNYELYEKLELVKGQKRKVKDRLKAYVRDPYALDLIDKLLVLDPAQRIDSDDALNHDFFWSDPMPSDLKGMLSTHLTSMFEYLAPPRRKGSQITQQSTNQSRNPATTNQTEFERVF
T1 sequence (O60563 whole entry partner): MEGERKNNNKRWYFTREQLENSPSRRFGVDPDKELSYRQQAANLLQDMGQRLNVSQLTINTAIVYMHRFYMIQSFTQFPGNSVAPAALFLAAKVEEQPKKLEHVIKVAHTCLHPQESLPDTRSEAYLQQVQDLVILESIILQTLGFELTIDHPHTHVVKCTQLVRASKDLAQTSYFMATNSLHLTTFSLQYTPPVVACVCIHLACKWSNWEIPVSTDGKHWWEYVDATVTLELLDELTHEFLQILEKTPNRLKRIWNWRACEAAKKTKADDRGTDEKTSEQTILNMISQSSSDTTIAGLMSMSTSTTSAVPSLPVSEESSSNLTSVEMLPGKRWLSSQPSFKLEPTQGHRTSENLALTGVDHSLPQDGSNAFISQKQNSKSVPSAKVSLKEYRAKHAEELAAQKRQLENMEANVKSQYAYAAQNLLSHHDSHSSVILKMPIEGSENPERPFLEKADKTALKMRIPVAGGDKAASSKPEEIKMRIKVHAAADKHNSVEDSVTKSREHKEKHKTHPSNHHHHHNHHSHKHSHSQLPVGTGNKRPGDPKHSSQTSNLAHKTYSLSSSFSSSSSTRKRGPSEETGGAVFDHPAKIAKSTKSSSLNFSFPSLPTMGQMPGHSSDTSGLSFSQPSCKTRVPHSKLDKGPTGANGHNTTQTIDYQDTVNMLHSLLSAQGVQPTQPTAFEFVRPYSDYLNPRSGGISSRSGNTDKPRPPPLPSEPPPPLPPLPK
T1 sequence (Q96SW2 whole entry): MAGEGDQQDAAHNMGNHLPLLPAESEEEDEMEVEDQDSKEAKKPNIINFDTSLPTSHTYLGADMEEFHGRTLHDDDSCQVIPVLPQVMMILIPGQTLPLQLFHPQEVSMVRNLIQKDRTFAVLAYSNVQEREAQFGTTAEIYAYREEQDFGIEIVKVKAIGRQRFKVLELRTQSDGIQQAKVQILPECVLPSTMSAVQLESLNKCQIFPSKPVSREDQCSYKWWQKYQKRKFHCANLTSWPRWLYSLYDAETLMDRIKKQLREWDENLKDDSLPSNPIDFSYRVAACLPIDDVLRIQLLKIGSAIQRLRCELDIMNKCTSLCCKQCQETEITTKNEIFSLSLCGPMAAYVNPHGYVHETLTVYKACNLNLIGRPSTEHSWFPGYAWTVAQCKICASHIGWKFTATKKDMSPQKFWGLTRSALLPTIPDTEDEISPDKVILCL
T1 sequence (Q16531 whole entry partner): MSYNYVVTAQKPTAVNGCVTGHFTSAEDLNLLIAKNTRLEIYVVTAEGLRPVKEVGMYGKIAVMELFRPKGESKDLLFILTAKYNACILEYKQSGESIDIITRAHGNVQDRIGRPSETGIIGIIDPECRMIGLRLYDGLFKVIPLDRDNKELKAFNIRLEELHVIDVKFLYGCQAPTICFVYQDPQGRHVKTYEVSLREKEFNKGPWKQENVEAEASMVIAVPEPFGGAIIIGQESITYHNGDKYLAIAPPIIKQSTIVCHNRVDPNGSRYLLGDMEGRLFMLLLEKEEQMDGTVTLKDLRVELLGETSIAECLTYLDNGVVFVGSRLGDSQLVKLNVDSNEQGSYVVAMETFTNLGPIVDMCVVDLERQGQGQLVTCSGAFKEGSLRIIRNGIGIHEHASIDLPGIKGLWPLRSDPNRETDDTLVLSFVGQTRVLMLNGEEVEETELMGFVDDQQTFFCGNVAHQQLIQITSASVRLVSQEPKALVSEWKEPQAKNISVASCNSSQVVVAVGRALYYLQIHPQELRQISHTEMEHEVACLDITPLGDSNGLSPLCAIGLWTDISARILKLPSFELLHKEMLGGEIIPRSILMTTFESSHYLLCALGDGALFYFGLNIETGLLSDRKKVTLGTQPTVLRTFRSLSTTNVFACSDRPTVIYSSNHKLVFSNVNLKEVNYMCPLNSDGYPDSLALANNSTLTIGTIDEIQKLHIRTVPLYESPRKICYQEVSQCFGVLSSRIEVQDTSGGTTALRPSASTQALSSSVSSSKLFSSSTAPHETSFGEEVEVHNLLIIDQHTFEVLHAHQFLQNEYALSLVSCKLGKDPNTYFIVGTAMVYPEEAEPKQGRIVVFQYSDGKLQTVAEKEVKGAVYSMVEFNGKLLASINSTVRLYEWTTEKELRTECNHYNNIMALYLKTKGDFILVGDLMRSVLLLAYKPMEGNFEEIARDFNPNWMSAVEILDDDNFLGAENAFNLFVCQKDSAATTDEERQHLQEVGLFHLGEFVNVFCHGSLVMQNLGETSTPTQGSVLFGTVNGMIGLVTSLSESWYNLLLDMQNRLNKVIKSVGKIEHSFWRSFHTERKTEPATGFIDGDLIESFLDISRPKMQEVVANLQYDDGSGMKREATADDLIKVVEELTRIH
Method for Kinetic solubility assay: Kinetic Solubility Assay. Kinetic solubility (KS) was measured according to Millipore protocol PC2445 EN00. Test compounds were weighed and diluted with DMSO to 10 mM. From the stock solutions as well as blank (100% DMSO) was taken 17.5 μL and diluted to 500 μM with 332.5 μL of 100 mM phosphate Buffered Saline (PPBS) at pH 7.4 in a 96-well quartz plate. From the 500 μM solutions was taken 150 μL and dispensed into a 96-well Millipore filter plate (Product number: MSSLBPC10). In the quartz plate, serial dilutions were performed down to 0.5 μM using the 100 mM PBS solution, leaving 100 μL of each test sample at 11 different concentrations, representing standards. These steps were performed in triplicate, at minimum, for each test compound. Both plates were shaken on an orbital shaker at 150 rpm for 1.5 hours. The contents of the filter plate were filtered and 100 μL of the filtrate from each well was dispensed into the quartz plate containing standards. The quartz plate was then analyzed using a UV plate reader where absorbance was measured at the relevant wavelength for each compound. After blank subtraction, for each test sample, solubility was determined based on the optical density of filtered samples and the equations derived from the corresponding linear standard curve.

On CDK9 [1], `O=C1CCC(N2C(=O)c3cccc(OCCCCCCCn4cc(CCN5CCC(NC(=O)c6n[nH]cc6NC(=O)c6c(Cl)cccc6Cl)CC5)nn4)c3C2=O)C(=O)N1` (stereo not drawn) [Compound 4.8a, 4-(2,6-dichlorobenzamido)-N-(1-(2-(1-(7-((2-(2,6-dioxopiperidin-3-yl)-1,3-dioxoisoindolin-4-yl)oxy)heptyl)-1H-1,2,3-triazol-4-yl)ethyl)piperidin-4-yl)-1H-pyrazole-3-carboxamide] returned a 50% degradation concentration (DC50) of 60.1 nM and a Dmax of 88.3%. Also, in data set [2], the “minimum difference in log k′80 to constitutional isomers” value is on record as 0.030 and the “logk′80” value is given as 0.146. In the data set with MV411 cells [3], the IC50 is 50.1 nM and the negative logarithm of the IC50 (pIC50) was 7.33. Besides, in “Kinetic solubility assay”, the concentration in solution (solubility at 1.5 h) came to 5.65 µM (≈ 4.79 µg/mL). In the data set with MV411 cells [4], the “loss of potency in human serum versus FBS” value is reported as about 20 fold.

On CDK9 [1], `O=C1CCC(N2C(=O)c3cccc(OCCCn4cc(CCCCCCCCCCN5CCC(NC(=O)c6n[nH]cc6NC(=O)c6c(Cl)cccc6Cl)CC5)nn4)c3C2=O)C(=O)N1` (stereo not drawn) [Compound 4.9c, 4-(2,6-dichlorobenzamido)-N-(1-(10-(1-(3-((2-(2,6-dioxopiperidin-3-yl)-1,3-dioxoisoindolin-4-yl)oxy)propyl)-1H-1,2,3-triazol-4-yl)decyl)piperidin-4-yl)-1H-pyrazole-3-carboxamide] registered a 50% degradation concentration (DC50) of 44.8 nM and a maximal degradation (Dmax) of 88.6%. Besides, in data set [2], the “minimum difference in log k′80 to constitutional isomers” value was 0.013 and the “logk′80” value is reported as 0.197. In the data set with MV411 cells [3], the IC50 is 7.94 nM and the pIC50 is 8.06. Besides, the “improvement in cytotoxicity over constitutional isomers” value with MV411 cells [3] (within isomer set) was about 10 fold. In addition, in the data set on AML cells, the “retention of potency after drug washout” value is listed as “retain their potency”. The same compound yielded a solubility at 1.5 h in the data set “Kinetic solubility assay” of 3.42 µM (≈ 3.09 µg/mL). Besides, in the data set on MV411 cells [4], the “loss of potency in human serum versus FBS” value came out at 3 fold.

At CDK9 [1], `O=C1CCC(N2C(=O)c3cccc(OCCCn4cc(CCCCN5CCC(NC(=O)c6n[nH]cc6NC(=O)c6c(Cl)cccc6Cl)CC5)nn4)c3C2=O)C(=O)N1` (stereo not drawn) [Compound 4.7b, 4-(2,6-dichlorobenzamido)-N-(1-(4-(1-(3-((2-(2,6-dioxopiperidin-3-yl)-1,3-dioxoisoindolin-4-yl)oxy)propyl)-1H-1,2,3-triazol-4-yl)butyl)piperidin-4-yl)-1H-pyrazole-3-carboxamide] had a half-maximal degradation concentration (DC50) of 69.2 nM and a Dmax of 79.1%. In addition, the “logk′80” value in data set [2] was found to be 0.084. Besides, in the data set on MV411 cells [3], the IC50 is 200 nM and the pIC50 was 6.72. Moreover, in “Kinetic solubility assay”, the “Solubility” value stood at 40.9 µM (≈ 33.5 µg/mL) and the concentration in solution (solubility at 1.5 h) was 40 µM (≈ 32.8 µg/mL). For the same compound, the “improvement in cytotoxicity in human serum versus FBS” value in the data set on MV411 cells [4] is listed as about 3 fold. The “in vivo CDK9 degradation” value with CDK9 [5] is “not observed”.

The values are drawn from patent US20250236607A1, “CYCLIN-DEPENDENT KINASE 9 (CDK9) DEGRADERS AND METHODS OF USING THEREOF” (OHIO STATE INNOVATION FOUNDATION, priority 2022, published 2025).
